ChEMBL document CHEMBL4813999, “Mur ligases inhibitors with azastilbene scaffold: Expanding the structure-activity relationship” (Bioorg Med Chem Lett, 2021)
Converted amounts (≈) assume the structure as drawn.

How the values were obtained:
[1] = Inhibition of MurE (unknown origin) at 100 uM relative to control
[2] = Inhibition of MurF (Unknown origin) at 100 uM relative to control
[3] = Inhibition of MurC (unknown origin) at 100 uM relative to control
[4] = Inhibition of MurD (unknown origin) at 100 uM relative to control
Escherichia coli = test: Antibacterial activity against Escherichia coli ATCC 25922 assessed as inhibition of bacterial growth; type: functional
Staphylococcus aureus = test: Antibacterial activity against Staphylococcus aureus ATCC 29213 assessed as inhibition of bacterial growth; type: functional
[5] = Inhibition of MurC (unknown origin)
[6] = Inhibition of MurD (unknown origin)
[7] = Inhibition of MurE (unknown origin)
[8] = Inhibition of MurF (unknown origin)

SMILES	inhibition [1] [%]	inhibition [2] [%]	inhibition [3] [%]	inhibition [4] [%]	MIC (Escherichia coli) [µM]	MIC (Staphylococcus aureus) [µM]	IC50 [5] [µM]	IC50 [6] [µM]	IC50 [7] [µM]	IC50 [8] [µM]
Cc1cc(-c2ccco2)cc(C)c1/C=C/c1cncc(C(N)=O)c1	51	76	20	40	> 250	> 250		168	156	31
Cc1cc(N2CCCCC2=O)cc(C)c1/C=C/c1cncc(-c2nnn[nH]2)c1	30	38	15	14	> 250	> 250				
Cc1cc(-c2ccco2)cc(C)c1/C=C/c1cncc(C2=NCCO2)c1	32	44	44	45	> 250	125 (≈ 43.1 µg/mL)	153	126		144
Cc1cc(-c2ccoc2)cc(C)c1/C=C/c1cncc(-c2nnn[nH]2)c1	18	12	16	22	> 250	> 250				
COc1ccc(-c2cc(C)c(/C=C/c3cncc(-c4nnn[nH]4)c3)c(C)c2)cc1	37	25	30	30	> 250	250 (≈ 95.9 µg/mL)				
Cc1cc(-c2ccco2)cc(C)c1/C=C/c1cncc(-c2nn[nH]n2)c1	51	74	30	55	> 250	> 250		104	79	59
COC(=O)c1cccc(-c2cc(C)c(/C=C/c3cncc(-c4nnn[nH]4)c3)c(C)c2)c1	23	16	15	16	> 250	> 250				
Cc1cc(-c2ccco2)cc(C)c1/C=C/c1cc(-c2nnn[nH]2)ccn1	55	84	23	73	> 250	> 250		56	97	17
Cc1cc(-c2cccnc2)cc(C)c1/C=C/c1cncc(-c2nn[nH]n2)c1	4	0	10	10	> 250	> 250				
COc1ccccc1-c1cc(C)c(/C=C/c2cncc(-c3nnn[nH]3)c2)c(C)c1	33	0	35	42	> 250	125 (≈ 47.9 µg/mL)		104		
Cc1cc(N2CCCC2)cc(C)c1/C=C/c1cncc(-c2nnn[nH]2)c1	16	29	22	1	> 250	250 (≈ 86.6 µg/mL)				
Cc1cc(Br)cc(C)c1/C=C/c1cncc(-c2nnn[nH]2)c1	38	32	30	46	> 250	250 (≈ 89.1 µg/mL)		131		

Results, then the compound that gave them:

inhibition [1] [%]	inhibition [2] [%]	inhibition [3] [%]	inhibition [4] [%]	MIC (Escherichia coli) [µM]	MIC (Staphylococcus aureus) [µM]	IC50 [5] [µM]	IC50 [6] [µM]	IC50 [7] [µM]	IC50 [8] [µM]	SMILES
23	24	25	14	> 250	> 250					Cc1cc(-c2cccc(CO)c2)cc(C)c1/C=C/c1cncc(-c2nnn[nH]2)c1
19	15	14	9	> 250	> 250					Cc1cc(-c2ccncc2)cc(C)c1/C=C/c1cncc(-c2nnn[nH]2)c1
46	58	56	70	> 250	> 250	82	85	150	71	Cc1cc(-c2ccco2)cc(C)c1/C=C/c1cncc(C2=NCCS2)c1
21	18	15	23	> 250	> 250					COc1cccc(-c2cc(C)c(/C=C/c3cncc(-c4nnn[nH]4)c3)c(C)c2)c1
27	47	43	70	> 250	> 250	153	64		109	Cc1cc(-c2ccco2)cc(C)c1/C=C/c1cncc(C(=O)O)c1
39	18	33	26	> 250	> 250					Cc1cc(-c2cccc(C(=O)O)c2)cc(C)c1/C=C/c1cncc(-c2nnn[nH]2)c1
35	21	22	27	> 250	> 250					Cc1cc(-c2ccco2)cc(C)c1/C=C/c1cncc(C#N)c1
30	21	5	64	> 250	> 250		107			Cc1cc(-c2ccco2)cc(C)c1/C=C/c1cccc(-c2nnn[nH]2)c1
10	40	42	47	250 (≈ 85.9 µg/mL)	31 (≈ 10.6 µg/mL)	151	160		201	Cc1cc(-c2ccco2)cc(C)c1/C=C/c1cncc(C2=NCCN2)c1
